Reference: patent US20230212131A1, “COLLAGEN 1 TRANSLATION INHIBITORS AND METHODS OF USE THEREOF” (Anima Biotech Inc., priority 2020, published 2023)

What follows are molecules tested on collagen 1 (COL1) (assay: WI-38 collagen 1 inhibition assay). Settings: Cellular EC50, WI-38 cells; values are classes of LogEC50.
Assay type: cell-based, human
Description: All compounds were profiled for cellular potency in inhibition of collagen 1 (COL1) protein translation using a phenotypic screening platform.
WI-38 cells (ATCC® CCL-75™) were maintained in MEM EAGLE (NEAA) W. GLUTAMIN (Biological Industries, Cat. 06-1040-15-1A) containing 10% fetal bovine serum (FBS) and 1% Penicillin-Streptomycin Solution. To synchronize the cells (cell cycle synchronization) prior to induction of collagen synthesis, the cells were starved using DMEM-low glucose supplemented with 0.25% FBS for two hours and then without FBS for 24 hours. To induce collagen synthesis, the cells were treated with a collagen induction cocktail for the indicated time. Compounds were added with induction.
Cells in 96-well or 384-well plates were fixed for 20 min in 4% paraformaldehyde (PFA, ENCO, Cat. sc-281692). Following two washes with 1×PBS, cells were treated with hydrogen peroxide (Acros, Cat: 7722-84-1) for 10 minutes and then washed twice with 1×PBS. Cells were then incubated over-night at 4° C. with Anti-Collagen I (Sigma-Aldrich, Cat: C 2456) antibody and washed three times with 1×PBS. Cells were then incubated with a suitable secondary fluorescently-tagged antibody and nuclei stained with DAPI, for 1 hour, and then washed 3 times with 1×PBS.
Cell images were taken with Operetta (Perkin Elmer, USA), a wide-field fluorescence microscope at 20× magnification. After acquisition, the images were transferred to Columbus software (Perkin-Elmer) for image analysis. In Columbus, cells were identified by their nucleus, using the “Find Nuceli” module and cytoplasm was detected based on the secondary antibody channel. Subsequently, the fluorescent signal was enumerated in the identified cell region. Data was exported to a data analysis and visualization software, Tibco Spotfire, USA.

Row | SMILES | COL1 Efficacy (LogEC50)
1 | O=C(Nc1nc(-c2ccccc2Cl)cs1)c1ccc(C(=O)N2CCOCC2)cc1 [compound 384, N-(4-(2-chlorophenyl)thiazol-2-yl)-4-(morpholine-4-carbonyl)benzamide] | ++ (++: −5 to −6)
2 | Cc1ncccc1-c1csc(NC(=O)c2ccc(N3CCOCC3)cc2)n1 [compound 369, N-[4-(2-methyl-3-pyridyl)thiazol-2-yl]-4-morpholino-benzamide] | ++ (++: −5 to −6)
3 | Cn1cc(-c2csc(NC(=O)c3ccc(N4CCOCC4)cc3)n2)cn1 [compound 354, N-[4-(1-methylpyrazol-4-yl)thiazol-2-yl]-4-morpholino-benzamide] | ++ (++: −5 to −6)
4 | COc1ccc(C(=O)Nc2nc(-c3cccnc3C)cs2)cc1 [Compound 343, 4-methoxy-N-[4-(2-methyl-3-pyridyl)thiazol-2-yl]benzamide] | +++ (+++: <−6)
5 | CS(=O)(=O)N1CCN(C(=O)[C@H]2C[C@@H](C(=O)Nc3nc(-c4ccccc4Cl)cs3)C2)CC1 [compound 429] | + (+: >−5)
6 | O=C(Nc1nc(-c2ccccc2Cl)cs1)c1ccc(C2CCOCC2)cc1 [Compound 380, N-(4-(2-chlorophenyl)thiazol-2-yl)-4-(tetrahydro-2H-pyran-4-yl)benzamide] | +++ (+++: <−6)
7 | Cc1ccc(C(=O)Nc2nc(-c3ccccc3N3CCC3)cs2)cn1 [compound 350, N-[4-[2-(azetidin-1-yl)phenyl]thiazol-2-yl]-6-methyl-pyridine-3-carboxamide] | − (−: inactive)
8 | O=C(Nc1nc(-c2ccccc2Cl)cs1)c1ccc(C(=O)N2CCNCC2)cn1 [compound 451, N-(4-(2-chlorophenyl)thiazol-2-yl)-5-(piperazine-1-carbonyl)picolinamide] | ++ (++: −5 to −6)
9 | O=C(Nc1nc(-c2cc(Cl)sc2Cl)cs1)c1ccccc1 [compound 312] | ++ (++: −5 to −6)
10 | CN1CC2(CCN(c3ccc(C(=O)Nc4nc(-c5ccccc5Cl)cs4)nc3)CC2)C1 [compound 456, N-(4-(2-chlorophenyl)thiazol-2-yl)-5-(2-methyl-2,7-diazaspiro[3.5]nonan-7-yl)picolinamide] | +++ (+++: <−6)
11 | COCCC(=O)N1CCN(c2ccc(C(=O)Nc3nc(-c4ccccc4Cl)cs3)cc2)CC1 [Compound 376, N-(4-(2-chlorophenyl)thiazol-2-yl)-4-(4-(3-methoxypropanoyl)piperazin-1-yl)benzamide] | +++ (+++: <−6)
12 | Cc1ccc(C(=O)Nc2nc(-c3ccccc3Cl)cs2)nc1 [compound 329, N-[4-(2-chlorophenyl)thiazol-2-yl]-5-methyl-pyridine-2-carboxamide] | ++ (++: −5 to −6)
13 | O=C(Nc1nc(-c2ccccc2Cl)cs1)C1CC(C(=O)N2CCOCC2)C1 (stereo not drawn) [compound 427] | − (−: inactive)
14 | O=C(Nc1nc(-c2ccccc2Cl)cs1)C1CCC(N2CCOCC2)CC1 (stereo not drawn) [compound 431] | − (−: inactive)
15 | COCCOCc1ccccc1-c1csc(NC(=O)c2ccc(N3CCOCC3)cc2)n1 [Compound 379, N-(4-(2-((2-methoxyethoxy)methyl)phenyl)thiazol-2-yl)-4-morpholinobenzamide] | ++ (++: −5 to −6)
16 | O=C(Nc1nc(-c2ccc(Cl)cc2Cl)cs1)c1ccccc1 [Compound 302, N-(4-(2,4-dichlorophenyl)thiazol-2-yl)benzamide] | ++ (++: −5 to −6)
17 | CN1CCC[C@@H](C(=O)N2CCN(c3ccc(C(=O)Nc4nc(-c5ccccc5Cl)cs4)nc3)CC2)C1 [Compound 485, (R)—N-(4-(2-chlorophenyl)thiazol-2-yl)-5-(4-(1-methylpiperidine-3-carbonyl)piperazin-1-yl)picolinamide] | +++ (+++: <−6)
18 | O=C(Nc1nc(-c2ccccc2Cl)cs1)c1ccc(N2CCCC2)cn1 [compound 481, N-(4-(2-chlorophenyl)thiazol-2-yl)-5-(pyrrolidin-1-yl)picolinamide] | +++ (+++: <−6)
19 | CN1CCC(C(=O)N2CCN(c3ccc(C(=O)Nc4nc(-c5ccccc5Cl)cs4)nc3)CC2)C1 (stereo not drawn) [Compound 482, N-(4-(2-chlorophenyl)thiazol-2-yl)-5-(4-(1-methylpyrrolidine-3-carbonyl)piperazin-1-yl)picolinamide] | +++ (+++: <−6)
20 | COc1ccccc1-c1csc(NC(=O)c2ccc(N3CCOCC3)cc2)n1 [compound 351, N-[4-(2-methoxyphenyl)thiazol-2-yl]-4-morpholino-benzamide] | +++ (+++: <−6)

Row | SMILES | COL1 Efficacy (LogEC50)
21 | Cc1ncccc1-c1csc(NC(=O)c2cnc(N3CCOCC3)nc2)n1 [compound 374, N-[4-(2-methyl-3-pyridyl)thiazol-2-yl]-2-morpholino-pyrimidine-5-carboxamide] | + (+: >−5)
22 | COc1cc(OC)cc(-c2csc(NC(=O)c3ccc(N4CCOCC4)cc3)n2)c1 [compound 353, N-[4-(3,5-dimethoxyphenyl)thiazol-2-yl]-4-morpholino-benzamide] | +++ (+++: <−6)
23 | O=C(Nc1nc(-c2ccccc2Cl)cs1)c1ccc(N2CCCC(O)C2)cn1 (stereo not drawn) [compound 477, N-(4-(2-chlorophenyl)thiazol-2-yl)-5-(3-hydroxypiperidin-1-yl)picolinamide] | +++ (+++: <−6)
24 | COCc1ccccc1-c1csc(NC(=O)c2ccc(N3CCN(S(C)(=O)=O)CC3)cn2)n1 [Compound 447, N-(4-(2-(methoxymethyl)phenyl)thiazol-2-yl)-5-(4-(methylsulfonyl)piperazin-1-yl)picolinamide] | +++ (+++: <−6)
25 | COc1ccc(C(=O)Nc2nc(-c3ccccc3Cl)cs2)cc1 [Compound 304, N-(4-(2-chlorophenyl)thiazol-2-yl)-4-methoxybenzamide] | +++ (+++: <−6)
26 | O=C(Nc1nc(-c2ccccc2Cl)cs1)c1ccc(N2CCOCC2)nn1 [compound 366, N-[4-(2-chlorophenyl)thiazol-2-yl]-6-morpholino-pyridazine-3-carboxamide] | +++ (+++: <−6)
27 | CC(=O)N1CCN(c2cc(C)c(C(=O)Nc3nc(-c4ccccc4Cl)cs3)c(C)c2)CC1 [compound 474] | − (−: inactive)
28 | Cc1ccc(C(=O)Nc2nc(-c3cncnc3C)cs2)cn1 [Compound 347, 6-methyl-N-[4-(4-methylpyrimidin-5-yl)thiazol-2-yl]pyridine-3-carboxamide] | ++ (++: −5 to −6)
29 | CC(=O)N1CCC(Oc2ccc(C(=O)Nc3nc(-c4ccccc4Cl)cs3)nc2)CC1 [compound 440, 5-((1-acetylpiperidin-4-yl)oxy)-N-(4-(2-chlorophenyl)thiazol-2-yl)picolinamide] | +++ (+++: <−6)
30 | O=C(Nc1nc(-c2ccccc2Cl)cs1)C12CC(N3CCOCC3)(C1)C2 [Compound 416, N-(4-(2-chlorophenyl)thiazol-2-yl)-3-morpholinobicyclo[1.1.1]pentane-1-carboxamide] | ++ (++: −5 to −6)
31 | CS(=O)(=O)N1CCN(C23CC(C(=O)Nc4nc(-c5ccccc5Cl)cs4)(C2)C3)CC1 [Compound 418, N-(4-(2-chlorophenyl)thiazol-2-yl)-3-(4-(methylsulfonyl)piperazin-1-yl)bicyclo[1.1.1]pentane-1-carboxamide] | ++ (++: −5 to −6)
32 | CC(=O)N1CCN(c2ccc(C(=O)Nc3nc(-c4ccccc4Cl)cs3)c(C)c2)CC1 [compound 473, 4-(4-acetylpiperazin-1-yl)-N-(4-(2-chlorophenyl)thiazol-2-yl)-2-methylbenzamide] | +++ (+++: <−6)
33 | O=C(Nc1nc(-c2ccccc2Cl)cs1)c1ccc(N2CCN(C(=O)CCO)CC2)cn1 [Compound 455, N-(4-(2-chlorophenyl)thiazol-2-yl)-5-(4-(3-hydroxypropanoyl)piperazin-1-yl)picolinamide] | +++ (+++: <−6)
34 | COc1ccc(C(=O)Nc2nc(-c3cc(C)cc(C)c3)cs2)cc1 [Compound 305, N-(4-(3,5-dimethylphenyl)thiazol-2-yl)-4-methoxybenzamide] | ++ (++: −5 to −6)
35 | CNC1CCN(c2ccc(C(=O)Nc3nc(-c4ccccc4Cl)cs3)nc2)CC1 [compound 476] | − (−: inactive)
36 | CN(C(=O)c1ccc(N2CCOCC2)cc1)c1nc(-c2ccccc2Cl)cs1 [Compound 399, N-(4-(2-chlorophenyl)thiazol-2-yl)-N-methyl-4-morpholinobenzamide] | ++ (++: −5 to −6)
37 | N#Cc1ccccc1-c1csc(NC(=O)c2ccc(N3CCOCC3)cc2)n1 [compound 361, N-[4-(2-cyanophenyl)thiazol-2-yl]-4-morpholino-benzamide] | − (−: inactive)
38 | O=C(Nc1nc(-c2ccccc2Cl)cs1)c1ccc(N2CCC(O)CC2)cn1 [Compound 446, N-(4-(2-chlorophenyl)thiazol-2-yl)-5-(4-hydroxypiperidin-1-yl)picolinamide] | +++ (+++: <−6)
39 | Cc1ccc(C(=O)Nc2nc(-c3cncnc3)cs2)cn1 [Compound 340, 6-methyl-N-(4-pyrimidin-5-ylthiazol-2-yl)pyridine-3-carboxamide] | +++ (+++: <−6)
